Assay results published in patent publication US20250281596A1, “IONIZABLE CATIONIC COMPOUND” (priority 2021, published 2025).

What was measured:
[1] = physchem; format: physicochemical; conditions: saRNA-LNP with the lipid; TNS, pH 4 to 9.5, 25° C.; read-out: Apparent pKa
Procedure: In a black 96-well plate, solutions of saRNA-LNP (final assay concentration 2 μg/mL total RNA) in a series of buffers ranging from pH 4 to 9.5 were prepared. Buffers between pH 4 to 7.6 were prepared from disodium phosphate and citric acid. Buffers from 7.8 to 9.5 were prepared by titrating tris buffer with 10 N sodium hydroxide. To each well was added 6-(p-Toluidino)-2-naphthalenesulfonic acid sodium salt (TNS) in water to a final assay concentration of 6 μM. The fluorescence was read on a plate reader at 25° C. with an excitation setting of 321 nm and an emission setting of 445 nm. The intensity values were plotted as a function of pH using GraphPad Prism and were fit with a sigmoidal dose response curve. The apparent pKa was determined as the EC50 of this curve where half of the ionizable amines are expected to be protonated (see FIG. 1).

[2] = tested on: BHK-21 cells; assay: In vitro potency: transfection of BHK-21 cells, 96-well imaging (Cytation 5); format: cell-based; conditions: LNPs encapsulating saRNA expressing H5 and N1, FIG. 3
Procedure: For LNPs prepared with SL16, SL17, SL18, and SL21, a similar assay was performed in a 96-well plate using BHK-21 cells and analysed using a Cytation 5 Cell Imaging Multimode Reader (Agilent). The results of this assay were analysed in the same way as described for the flow cytometry assay, except only an H5-antibody was used for detection. In vitro transfection potency was determined for LNPs containing lipids SL16, SL17, SL18, and SL21. […] SL16 LNP, SL17 LNP, and SL18 LNP were formulated using a flow-rate ratio of 2:1. SL17 LNP2, SL18 LNP2, and SL21 were formulated using a flow-rate ratio of 3:1 (FIG. 3).

Structure (SMILES)	pKa [1]	Ability to transfect cells (H5-antibody detection) [2]
CCCCCCCCCC(CCCCCCCCC(=O)OCC(CCCC)CCCCCC)OC(=O)CC1CCN(C)CC1 (stereo not drawn) [SL14]	6.63	
CCCCCCCCCC(CCCCCCCCC(=O)OCC(CCCC)CCCCCC)OC(=O)CCC1CCN(C)CC1 (stereo not drawn) [SL15]	7.13	
CCCCCCCCCC(CCCCCCCCC(=O)OCC(CCCC)CCCCCC)OC(=O)C1CCN(CCCO)CC1 (stereo not drawn) [SL16]		able to transfect BHK-21 cells in vitro
CCCCCCCCCC(CCCCCCCCC(=O)OCC(CCCC)CCCCCC)OC(=O)CC1CCN(CCCO)CC1 (stereo not drawn) [SL17]		able to transfect BHK-21 cells in vitro
CCCCCCCCCC(CCCCCCCCC(=O)OCC(CCCC)CCCCCC)OC(=O)CCC1CCN(CCCO)CC1 (stereo not drawn) [SL18]		able to transfect BHK-21 cells in vitro
CCCCCCCCCC(CCCCCCCCOC(=O)CC(CCCC)CCCCCC)OC(=O)CC1CCN(CCCO)CC1 (stereo not drawn) [SL21]		able to transfect BHK-21 cells in vitro
